Experimental data reported in patent US9687438B2, “Method for enhancing collagen secretion and preventing cutaneous aging using chenopodium formosanum extract” (TCI Co., Ltd., priority 2014, dated 2017).

Legend:
porcine collagen [1] = assay: Early glycation product (fructosamine) formation; assay type: biochemical; details: versus untreated glycated collagen control
Experimental: (§1) In order to evaluate the ability to prevent glycation of collagen of the Chenopodium formosanum extract, firstly, porcine collagen (60 mg/mL) and fructose (1.5 M) were respectively prepared in 0.2 M potassium phosphate buffer (pH 7.4, containing 0.06% sodium azide). For each reaction of glycation, 100 μL of porcine collagen, 100 μL of fructose solution, and 100 μL of deionized water were deposited in a 1.5 mL microfuge tube. After incubation, the reacted solutions were stored frozen at −20° C. For determination of collagen-fructose glycation, a glycation inhibitor of aminoguanidine (AG) (Sigma) was used. 100 μL of 3 mM AG solution (prepared in deionized water) was introduced in substitution of the deionized water in each of the reactions described above containing collagen and fructose. Meanwhile, different concentrations of the whole grain (un-dehulled) Chenopodium formosanum extract were also prepared and introduced to the reactions describe above. For determination of the intensity, 100 μL of each reacted solution was withdrawn to a well of a 96-well plate and subjected to intensity determination by a spectrofluorometer (FLx 800, BioTek, Winooski, Vt.) set at 360 nm of excitation and 460 nm of emission.
Amadori product such as fructosamine is formed at the early stage of glycation. […]

porcine collagen [2] = assay: Intermediate glycation product (α-dicarbonyl compounds) formation; assay type: biochemical; details: versus untreated glycated collagen control
Experimental: as §1
Along the glycation process, amadori product is transformed into intermediate-product such as α-dicarbonyl compounds. […]

N=C(N)NN [aminoguanidine]
reduction of relative fructosamine formation (porcine collagen [1]): about 8% | reduction of relative α-dicarbonyl compounds formation (porcine collagen [2]): practically incapable of suppressing the formation of α-dicarbonyl compounds
